Laboratory results from patent US8293294B2, “Cosmetic composition comprising an aqueous extract of Chrysophyllum cainito” (Laboratories Clarins, priority 2008, dated 2012).

Test system: CML (carboxymethyl adducts of lysine) induced by glyoxal
Experiment: Inhibition of glyoxal-induced CML formation in cultured human dermal fibroblasts (immunofluorescence)
Assay type: cell-based
Details: aminoguanidine 10 mM, positive reference, fibroblasts with 200 μM glyoxal for 7 days
Description: It is a question of evaluating the inhibitory activity of the extract of Chrysophyllum cainito with respect to CML (carboxymethyl adducts of lysine) induced by glyoxal as well as its protective effect on vimentin, the target of formation of the CMLs, in a culture of human dermal fibroblasts.
Normal adult human fibroblasts were cultivated at 37° C. and 5% CO2 on a cover slip in a Petri dish of diameter 60 at a rate of 30000 cells per cover slip. The incubation medium is DMEM medium (Dulbecco modified Eagle medium) supplemented with 10% fetal calf serum and penicillin/streptomycin (50 μg/ml). […]
The cells were washed with PBS (phosphate-buffered saline) and permeabilized with 0.1% Triton X-100 for 10 minutes. […] Before taking the reading, 4 rinsings with PBS are performed.
The cover slips are mounted on the glass slide and then examined with the fluorescence microscope (Nikon Eclipse 50i). […] The photomicrographs are analyzed using Lucia image analysis software. The FITC fluorescence images indicate the regions of localization of vimentin. The TRITC fluorescence images indicate the regions of localization of CML. The DAPI fluorescence images indicate the cell nuclei and therefore the number of cells per field (see FIGS. 1 to 4).
This intensity of fluorescence is shown relative to the number of cells per micrograph. […]

With `N=C(N)NN` [Aminoguanidine] the “inhibition of the formation of carboxymethyl adducts of lysine (CML), intensity of labeling” value was “completely inhibits” and the “inhibition of the formation of carboxymethyl adducts of lysine (CML), intensity of labeling” value (listed as aminoguanidine) was “completely inhibited”.
